The text below walks through data of patent publication US7202254B2, “Antibacterial compounds: process for their preparation and pharmaceutical compositions containing them” (Dr. Reddy's Laboratories Limited, priority 2002, dated 2007).

The test system of data set [1] is Enterococcus faecium NCTC 12202. The experiment in a line: MIC by broth microdilution, Enterococcus sp DRCC 154 (R). It counts as cell-based. The note with it: NCTC12202; DRCC 154 = Enterococcus faecium NCTC 12202, R; Mueller Hinton Broth, overnight 37° C.; read-out: Antimicrobial Screening (MIC) Enterococcus sp 154 R. The method, then: (§1) Minimum Inhibiton Concentrations (MICs) were determined by broth microdilution technique as per the guidelines prescribed om the fifth edition of Approved Standards, NCCLS document M7-A5 Vol 20-No 2, 2000 Villinova, Pa.
(§2) Initial stock solution of the test compound was prepared in DMSO. Subsequent two fold dilutions were carried out in sterile Mueller Hinton Broth (Difco) (MHB).
(§3) Frozen cultures stocks were inoculated into 50 mL sterile MHB in 250 mL Erlyn Meyer flasks.
(§4) Flasks were incubated for 4 to 5 h at 35° C. on a rotary shaker at 150 rpm. Inoculum was prepared by diluting the culture in sterile MHB to obtain a turbidity of 0.5 McFarland standard. This corresponds to 1–2×10^8 CFU/mL. The stock was further diluted in sterile broth to obtain 1–2×10^6 CFU/mL. 50 μl of the above diluted inoculum was added from 1–10 wells. The plates were incubated overnight at 37° C.

In data set [2] the test system is Enterococcus faecalis ATCC 29212. The experiment in a line: MIC by broth microdilution, Enterococcus sp DRCC 034 (S). In kind it is cell-based. As to conditions: ATCC29212; DRCC 034 = Enterococcus faecalis ATCC 29212, S; Mueller Hinton Broth, overnight 37° C.; read-out: Antimicrobial Screening (MIC) Enterococcus sp 034 S. The method, then: as §1, §2, §3, §4
On the technique in general: Broth dilution looks for growth in wells or tubes with falling amounts of substance.

The test system of data set [3] is Staphylococcus aureus ATCC 33591. Briefly: MIC by broth microdilution, Staphylococcus aureus DRCC 019 (MRSA). It counts as cell-based. The note with it: DRCC 019 = ATCC 33591, MRSA, Mueller Hinton Broth, overnight 37° C., read-out: Antimicrobial Screening (MIC) Staphylococcus aureus 019 MRSA. Here is the method: as §1, §2, §3, §4
In data set [4] the test system is Escherichia coli ATCC 25922. The experiment in a line: MIC by broth microdilution, E coli DRCC 18 (S). The note with it: ATCC25922; DRCC 018 = Escherichia coli ATCC 25922, S; Mueller Hinton Broth, overnight 37° C.; read-out: Antimicrobial Screening (MIC) E coli 18 S. It counts as cell-based. The method, then: as §1, §2, §3, §4
Data set [5] concerns Staphylococcus aureus ATCC 49951. The experiment in a line: MIC by broth microdilution, Staphylococcus aureus DRCC 213 (Smith S). The note with it: ATCC49951, DRCC 213 = ATCC 49951, Smith S, Mueller Hinton Broth, overnight 37° C., read-out: Antimicrobial Screening (MIC) Staphylococcus aureus 213 Smith S. It counts as cell-based. The method, then:
as §1, §2, §3, §4

In data set [6] the test system is Enterococcus faecalis NCTC 12201. The experiment in a line: MIC by broth microdilution, Enterococcus sp DRCC 153 (R). In kind it is cell-based. The note with it: NCTC12201; DRCC 153 = Enterococcus faecalis NCTC 12201, R; Mueller Hinton Broth, overnight 37° C.; read-out: Antimicrobial Screening (MIC) Enterococcus sp 153 R. Here is the method:
as §1, §2, §3, §4

The test system of data set [7] is Staphylococcus aureus ATCC 29213. Briefly: MIC by broth microdilution, Staphylococcus aureus DRCC 035 (S). It counts as cell-based. As to conditions: ATCC29213, DRCC 035 = ATCC 29213, S, Mueller Hinton Broth, overnight 37° C., read-out: Antimicrobial Screening (MIC) Staphylococcus aureus 035 S. The method, then: as §1, §2, §3, §4

Values after ≈ are worked out from the molar mass of the structure shown.

Take `CC(=S)NCc1cn(-c2cc(F)c(N3CCOCC3)c(F)c2)nn1` [Example 51, N-[1-(3,5-Difluoro-4-morpholin-4-yl-phenyl)-1H-[1,2,3]triazol-4-ylmethyl]-thioacetamide]: the melting point (commonly the temperature of the solid-liquid transition) was found to be 190 °C. For the same molecule, the MIC (as a rule, the least concentration at which growth counts as inhibited) in data set [1] was determined as 2 µg/mL (≈ 5.66 µM). For the same molecule, the MIC in data set [2] stood at 2 µg/mL (≈ 5.66 µM). Further, the MIC in data set [3] stood at 1 µg/mL (≈ 2.83 µM). Further, the MIC in data set [4] was found to be 32 µg/mL (≈ 90.5 µM). The MIC in data set [5] is 1 µg/mL (≈ 2.83 µM). The minimum inhibitory concentration (MIC) in data set [6] was 1 µg/mL (≈ 2.83 µM). Moreover, in data set [7], the minimum inhibitory concentration (MIC) worked out at 1 µg/mL (≈ 2.83 µM).

The molecule `CC(=S)NCc1cn(-c2ccc(N3CCOCC3)c(F)c2)nn1` [Example 52, N-[1-(3-Fluoro-4-morpholin-4-yl-phenyl)-1H-[1,2,3]triazol-4-ylmethyl]-thioacetamide] registered a melting point of 192 °C. Further, in data set [1], the MIC was 2 µg/mL (≈ 5.96 µM). For the same molecule, the minimum inhibitory concentration (MIC) in data set [2] is 2 µg/mL (≈ 5.96 µM). Moreover, the MIC in data set [3] turned out to be 2 µg/mL (≈ 5.96 µM). Further, the MIC in data set [4] stood at 256 µg/mL (≈ 763 µM). Also, the MIC in data set [5] was 2 µg/mL (≈ 5.96 µM). For the same molecule, the MIC in data set [6] was found to be 2 µg/mL (≈ 5.96 µM). In data set [7], the minimum inhibitory concentration (MIC) was found to be 2 µg/mL (≈ 5.96 µM).

Consider `COC(=S)NCc1cn(-c2cc(F)c(N3CCOCC3)c(F)c2)nn1` [Example 54, [1-(3,5-Difluoro-4-morpholin-4-yl-phenyl)-1H-[1,2,3]triazol-4-ylmethyl]-thiocarbamic acid O-methyl ester], for which the melting point is 135 °C. Also, the minimum inhibitory concentration (MIC) in data set [1] amounted to 4 µg/mL (≈ 10.8 µM). Moreover, the minimal inhibitory concentration (MIC) in data set [2] was 4 µg/mL (≈ 10.8 µM). Besides, the minimum inhibitory concentration (MIC) in data set [3] stood at 2 µg/mL (≈ 5.41 µM). For the same molecule, the minimum inhibitory concentration (MIC) in data set [4] was determined as 32 µg/mL (≈ 86.6 µM). Besides, the minimum inhibitory concentration (MIC) in data set [5] worked out at 2 µg/mL (≈ 5.41 µM). The minimum inhibitory concentration (MIC) in data set [6] was 4 µg/mL (≈ 10.8 µM). Further, in data set [7], the minimal inhibitory concentration (MIC) was found to be 4 µg/mL (≈ 10.8 µM).

Take `COC(=S)NCc1cn(-c2ccc(N3CCOCC3)c(F)c2)nn1` [Example 55, [1-(3-Fluoro-4-morpholin-4-yl-phenyl)-1H-[1,2,3]triazol-4-ylmethyl]-thiocarbamic acid O-methyl ester]: the melting point was determined as 148 °C. For the same molecule, the MIC in data set [1] was found to be 8 µg/mL (≈ 22.8 µM). The MIC in data set [3] turned out to be 4 µg/mL (≈ 11.4 µM). Also, the minimal inhibitory concentration (MIC) in data set [4] came to 32 µg/mL (≈ 91.1 µM). Also, in data set [5], the MIC stood at 4 µg/mL (≈ 11.4 µM). Moreover, in data set [6], the MIC is 4 µg/mL (≈ 11.4 µM). Besides, in data set [7], the minimum inhibitory concentration (MIC) is 4 µg/mL (≈ 11.4 µM).

As to `COC(=S)NCc1cn(-c2cc(F)c(N3CCSCC3)c(F)c2)nn1` [Example 56, [1-(3,5-Difluoro-4-thiomorpholin-4-yl-phenyl)-1H-[1,2,3]triazol-4-ylmethyl]-thiocarbamic acid O-methyl ester], the melting point is 127 °C. In addition, the minimal inhibitory concentration (MIC) in data set [1] was determined as 8 µg/mL (≈ 20.8 µM). Besides, the minimal inhibitory concentration (MIC) in data set [2] is 2 µg/mL (≈ 5.19 µM). In data set [3], the MIC stood at 1 µg/mL (≈ 2.59 µM). Besides, in data set [4], the minimal inhibitory concentration (MIC) was determined as 32 µg/mL (≈ 83 µM). The MIC in data set [5] is 1 µg/mL (≈ 2.59 µM). The MIC in data set [6] was 2 µg/mL (≈ 5.19 µM). Besides, the MIC in data set [7] stood at 2 µg/mL (≈ 5.19 µM).

Turning to `COC(=S)NCc1cn(-c2cc(F)c(N3CCS(=O)(=O)CC3)c(F)c2)nn1` [Example 58, {1-[4-(1,1-Dioxo-1lambda*6*-thiomorpholin-4-yl)-3,5-difluoro-phenyl]-1H-[1,2,3]triazol-4-ylmethyl}-thiocarbamic acid O-methyl ester], the melting point stood at 162 °C. Moreover, the MIC in data set [1] was determined as 4 µg/mL (≈ 9.58 µM). For the same molecule, in data set [2], the MIC worked out at 4 µg/mL (≈ 9.58 µM). Moreover, in data set [3], the MIC was determined as 1 µg/mL (≈ 2.4 µM). Besides, the MIC in data set [4] was found to be 32 µg/mL (≈ 76.7 µM). Also, the minimal inhibitory concentration (MIC) in data set [5] turned out to be 2 µg/mL (≈ 4.79 µM). Besides, the MIC in data set [6] was 2 µg/mL (≈ 4.79 µM). In data set [7], the minimum inhibitory concentration (MIC) turned out to be 2 µg/mL (≈ 4.79 µM).

The molecule `COC(=S)NCc1cn(-c2ccc(N3CCSCC3)c(F)c2)nn1` [Example 59, [1-(3-Fluoro-4-thiomorpholin-4-yl-phenyl)-1H-[1,2,3]triazol-4-ylmethyl]-thiocarbamic acid O-methyl ester] returned a melting point of 168 °C. Also, the MIC in data set [1] stood at 8 µg/mL (≈ 21.8 µM). In addition, the minimal inhibitory concentration (MIC) in data set [2] stood at 8 µg/mL (≈ 21.8 µM). Besides, the MIC in data set [3] stood at 2 µg/mL (≈ 5.44 µM). Also, the MIC in data set [4] was above 32 µg/mL. Besides, the MIC in data set [5] worked out at 2 µg/mL (≈ 5.44 µM). Further, the minimal inhibitory concentration (MIC) in data set [6] turned out to be 8 µg/mL (≈ 21.8 µM). In addition, the minimum inhibitory concentration (MIC) in data set [7] worked out at 4 µg/mL (≈ 10.9 µM).

`COC(=S)NCc1cn(-c2ccc(N3CC[S+]([O-])CC3)c(F)c2)nn1` [Example 60, {1-[3-Fluoro-4-(1-oxo-lambda*4*-thiomorpholin-4-yl)-phenyl]-1H-[1,2,3]triazol-4-ylmethyl}-thiocarbamic acid O-methyl ester] showed a melting point of 198 °C. In addition, the MIC in data set [1] worked out at 4 µg/mL (≈ 10.4 µM). For the same molecule, the MIC in data set [2] amounted to 2 µg/mL (≈ 5.22 µM). Moreover, in data set [3], the minimal inhibitory concentration (MIC) came to 1 µg/mL (≈ 2.61 µM). Besides, the minimum inhibitory concentration (MIC) in data set [4] was above 32 µg/mL. Further, in data set [5], the MIC was determined as 1 µg/mL (≈ 2.61 µM). Further, in data set [6], the minimal inhibitory concentration (MIC) was determined as 1 µg/mL (≈ 2.61 µM). Also, the MIC in data set [7] stood at 2 µg/mL (≈ 5.22 µM).

On to `COC(=S)NCc1cn(-c2ccc(N3CCS(=O)(=O)CC3)c(F)c2)nn1` [Example 61, {1-[4-(1,1-Dioxo-1lambda*6*-thiomorpholin-4-yl)-3-fluoro-phenyl]-1H-[1,2,3]triazol-4-ylmethyl}-thiocarbamic acid O-methyl ester], for which the melting point was 184 °C. In data set [1], the minimum inhibitory concentration (MIC) was 8 µg/mL (≈ 20 µM). Further, in data set [2], the MIC turned out to be 2 µg/mL (≈ 5.01 µM). In addition, in data set [3], the minimum inhibitory concentration (MIC) is 2 µg/mL (≈ 5.01 µM). Besides, in data set [4], the MIC was above 32 µg/mL. Besides, the MIC in data set [5] stood at 2 µg/mL (≈ 5.01 µM). For the same molecule, the minimal inhibitory concentration (MIC) in data set [6] was found to be 2 µg/mL (≈ 5.01 µM). In data set [7], the minimum inhibitory concentration (MIC) turned out to be 4 µg/mL (≈ 10 µM).

As for `CSC(=S)NCc1cn(-c2ccc(N3CCOCC3)c(F)c2)nn1` [Example 67, [1-(3-Fluoro-4-morpholin-4-yl-phenyl)-1H-[1,2,3]triazol-4-ylmethyl]-dithiocarbamic acid methyl ester], the minimal inhibitory concentration (MIC) came to 1 µg/mL (≈ 2.72 µM) in data set [1]; 1 µg/mL (≈ 2.72 µM) in data set [2]; 1 µg/mL (≈ 2.72 µM) in data set [3]; 32 µg/mL (≈ 87.1 µM) in data set [4]; 1 µg/mL (≈ 2.72 µM) in data set [5]; 1 µg/mL (≈ 2.72 µM) in data set [6]. Also, in data set [7], the minimum inhibitory concentration (MIC) worked out at 1 µg/mL (≈ 2.72 µM).

As to `COC(=S)NCc1cn(-c2cc(F)c(N3CCC(=O)CC3)c(F)c2)nn1` [Example 85, {1-[3,5-Difluoro-4-(4-oxo-piperidin-1-yl)-phenyl]-1H-[1,2,3]triazol-4-ylmethyl}thiocarbamic acid O-methyl ester], the melting point was in the range of 175 to 176 °C.
